Values of other authors, collected in patent US20050187170A1, “Enhancing the efficiency of RNA polymerase inhibitors by using inosine monophosphate dehydrogenase inhibitors” (BIOCRYST PHARMACEUTICALS, INC., priority 2003, published 2005).

Experiments:
human IMPDH type I = human IMPDH type I (Homo sapiens, UniProt P20839); details: read-out: Ki, IMPDH type I; type I expressed in normal cells; Carr, et al.
HIV = details: human peripheral blood CD4+ lymphocytes and macrophages, established human cell lines

Chain of human IMPDH type I (P20839 whole entry): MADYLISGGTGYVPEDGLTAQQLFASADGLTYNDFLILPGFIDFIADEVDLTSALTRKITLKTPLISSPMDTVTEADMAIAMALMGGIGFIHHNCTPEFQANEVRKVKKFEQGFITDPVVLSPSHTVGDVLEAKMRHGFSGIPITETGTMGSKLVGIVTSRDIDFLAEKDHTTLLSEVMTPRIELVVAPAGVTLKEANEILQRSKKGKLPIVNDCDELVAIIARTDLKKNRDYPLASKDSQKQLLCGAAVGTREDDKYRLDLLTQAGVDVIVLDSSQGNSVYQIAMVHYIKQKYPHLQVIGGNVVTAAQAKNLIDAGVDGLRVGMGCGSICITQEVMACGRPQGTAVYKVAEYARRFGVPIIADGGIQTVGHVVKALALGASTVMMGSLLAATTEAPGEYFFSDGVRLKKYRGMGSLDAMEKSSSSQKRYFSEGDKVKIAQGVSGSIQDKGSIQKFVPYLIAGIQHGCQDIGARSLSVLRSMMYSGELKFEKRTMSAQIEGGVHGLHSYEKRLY

## COc1c(C)c2c(c(O)c1C/C=C(\C)CCC(=O)O)C(=O)OC2 [MPA, Mycophenolic acid]
Human IMPDH type I
  Ki: 33 to 37 nM
HIV
  anti-HIV activity in vitro: strong anti-HIV activity
